Results reported in PMC1892040 (PLoS Medicine, 2007).

Columns and labels:
[1] = system: adult Schistosoma mansoni worms; assay: Inhibitor studies on cultured adult worms (unpairing, mortality); assay type: cell-based
Method: […] Control worms were treated with equal amounts of carrier. Worms were subsequently observed for unpairing, motility, and mortality, and were collected at the indicated time intervals for analysis. Worms were homogenized by sonication in PBS and homogenates were assayed for TrxR and GR activities as described above. […] Each assay was done in triplicate and each experiment was done three times.

[2] = system: schistosomula and juvenile liver stage parasites; assay: Survival of larval and juvenile parasites in culture with AF; assay type: cell-based, Schistosoma mansoni; details: AF at concentrations as low as 5 μM
Description: Percutaneous infection of outbred mice (NIH Swiss or Swiss-Webster) with S. mansoni cercariae (NMRI strain) obtained from infected Biomphalaria glabrata snails, perfusion of adult worms (6–7 wk) and juvenile worms (23 d) and preparation of schistosomula from cercariae were as described. This study was approved by the Institutional Animal Care and Use Committee of Illinois State University (08–2002; Department of Health and Human Services animal welfare assurance number A3762–01).
Figure 6 Survival of Schistosomula, Adult Worms, and Myeloma Cells in the Presence of Auranofin or Potassium Antimonyl Tartrate (A) Cultured schistosomula treated with 0 μM AF (dashed line); AF 0.5 μM (♦); 1 μM (*); 2 μM (x); 5 μM (▴); 10 μM. (B) Survival of adult Schistosoma mansoni worms at 24 h (dashed line), myeloma cells at 24 h; and myeloma cells at 5 d (♦) at given concentrations of AF. (C) As in (B) in the presence of given concentrations of PAT. Each treatment was done in triplicate and each experiment was done three times. Error bars show the standard deviation of the three replicate experiments.

myeloma cell line SP2/0 = assay: Cytotoxicity assay (sulforhodamine B); assay type: cell-based; details: for 5 d
Method: Cytotoxicity assays were performed using sulforhodamine B to determine cellular protein content as described. Briefly, myeloma cell line SP2/0 was cultured in 96-well microtiter plates containing 0.2 ml of RPMI-1640 per well at a cell density of 1,000 per well at 37 °C in 5% CO2. Cells were treated with drug concentrations (or drug carrier alone) and exposure times as indicated. After treatment, cells were fixed with 10% TCA at 4 °C for 1 h. Fixed cells were rinsed to remove fixative and then stained in 0.4% (w/v) sulforhodamine B (Sigma) in 1% acetic acid for 30 min. After washing with 1% acetic acid and dye extraction in 10 mM Tris (pH 10.5), plates were read at A564nm. The A564nm of drug-treated cells was compared to carrier-only-treated cells. The treatments were done in triplicate and the experiments repeated three times.

schistosomula = assay: Schistosomula survival after RNAi and/or drug treatment; assay type: cell-based, Schistosoma mansoni; details: AF at 2 μM; TGR dsRNA
Method: Cercariae were mechanically transformed to schistosomula by vortexing, and bodies were separated from tails by Percoll gradient centrifugation as described [13]. Immediately after transformation, TGR dsRNA or irrelevant dsRNA (each at 54 μg/ml) was added to ~500 schistosomula in 50 μl water followed by incubation at 37 °C for 30 min. After addition of 250 μl of RPMI-1640 medium, 300 U/ml penicillin, and 175 μg/ml streptomycin, parasites were incubated at 37 °C in 5% CO2 atmosphere for 4 d. Reduced O2 tension was obtained by filtering media and purging with 95% N2, 5% CO2 for 20 min before use. Parasites were cultured during the course of the experiment in the appropriate gaseous mix at 37 °C in a sealed modular incubator chamber (Billups-Rothenberg, http://www.brincubator.com) flushed with the same gaseous mix. On day 2 of the experiment, 50 μl of fresh media was added. Schistosomula were assessed daily for viability by microscopy. For each time point at least 1,500 parasites were scored as alive or dead in each experiment (three replicates of 500 each), and each experiment was repeated three times.
(B) Parasites were cultured in the presence of double-stranded TGR RNA (dashed lines) or of double-stranded irrelevant RNA (solid lines) in 20% O2 (♦) or 0% O2 (). […] (C) Combination of RNAi and drug treatments. Solid lines are irrelevant dsRNA treatments and dashed lines are dsTGR treatments; no additions (♦), 2 μM praziquantel () and 2 μM AF (▴). […] In each experiment for each time point at least 1,500 parasites were scored as alive or dead (three replicates of 500 parasites). The error bars represent the standard deviations of three independent experiments.

S. mansoni TGR [3] = target: T1, S. mansoni TGR (Schistosoma mansoni, UniProt Q962Y6)
T1 sequence (Q962Y6 1-598): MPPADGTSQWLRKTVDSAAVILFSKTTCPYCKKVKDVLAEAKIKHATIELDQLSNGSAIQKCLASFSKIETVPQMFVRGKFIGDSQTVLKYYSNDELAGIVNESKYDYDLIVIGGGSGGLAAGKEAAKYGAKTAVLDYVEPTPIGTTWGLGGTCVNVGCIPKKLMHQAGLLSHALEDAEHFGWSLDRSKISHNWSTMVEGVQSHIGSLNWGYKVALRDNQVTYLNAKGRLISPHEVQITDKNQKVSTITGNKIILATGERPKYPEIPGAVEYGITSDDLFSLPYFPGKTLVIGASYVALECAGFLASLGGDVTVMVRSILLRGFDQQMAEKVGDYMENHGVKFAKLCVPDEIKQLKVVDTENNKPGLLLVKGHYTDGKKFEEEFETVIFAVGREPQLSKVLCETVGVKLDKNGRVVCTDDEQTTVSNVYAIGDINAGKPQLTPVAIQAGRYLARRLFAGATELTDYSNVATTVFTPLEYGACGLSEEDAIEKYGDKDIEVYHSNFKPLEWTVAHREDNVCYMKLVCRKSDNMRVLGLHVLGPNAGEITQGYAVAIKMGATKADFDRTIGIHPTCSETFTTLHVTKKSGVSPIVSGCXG
Method: (§1) Assays were performed at 25 °C in 0.1 M potassium phosphate (pH 7.4), 10 mM EDTA using 100 μM NADPH unless otherwise stated.
(§2) Initial inhibitor screens were conducted in 200 μl volumes in 96 well plates with 50 μM inhibitor, 100 μM NADPH, and 5 nM TGR in 0.1 M potassium phosphate (pH 7.4), 10 mM EDTA with a preincubation step of 15 min. […] All assays were done in triplicate.

mammalian cells = system: mammalian cells; set-up: method as in PMID 14561156; details: cultured in 10 μM AF; cited from earlier work
S. mansoni TGR [4] = target: T1, S. mansoni TGR; assay: IC50, Grx activity of TGR (HED assay), 15 min preincubation; assay type: biochemical; set-up: The entire TGR ORF plus the SECIS element was subcloned into pET-24a; made in house; host or cells: Escherichia coli BL21(DE3) with pSUABC; details: 8 mM HED plus 1 mM GSH, 15 min preincubation with 100 μM NADPH
Method: as §1, §2

CC(=O)OC[C@H]1O[C@@H]([S-])[C@H](OC(C)=O)[C@@H](OC(C)=O)[C@@H]1OC(C)=O.CCP(CC)CC.[Au+] [AF, auranofin]
Time to adult worm death ([1]; 5 μM AF): 24 h | Mortality of adult worms after 6 h ([1]; 10 μM AF): 83% | Mortality of adult worms after 9 h ([1]; 10 μM AF): 100% | Time to unpairing of male and female worms ([1]; 10 μM AF): 1 h | Concentration able to kill parasites rapidly in culture ([1]; physiological concentration, abstract): 5 µM | Time to kill larval, skin stage and juvenile liver stage parasites [2]: less than 10 h | Concentration tolerated by mammalian cell line (myeloma cell line SP2/0): 100 µM | Schistosomula survival after 1 d (schistosomula): 93.7% | Schistosomula survival after 2 d (schistosomula): 66.1% | activity (S. mansoni TGR [3]): 0% | Viability of mammalian cells (mammalian cells): over 95% | IC50 (S. mansoni TGR [4]): 6 nM
